Read-outs that look alike come from different tables or passages of the source.
How the values were obtained:
[1] = test system: WEE1; assay: Western blot, substrate protein degradation in hPBMC Cell; type: cell-based, Human; settings: substrate protein remaining %, treated at 50 nM and 500 nM, 24 hours
Protocol: (§1) Conventional Western blot assay was performed to evaluate the effects of the compounds of the present disclosure on the expression of target proteins in cells.
(§2) (1) Cell Seeding and Protein Harvesting: The selected cells were processed according to the cell seeding procedure and protein harvesting procedure in Table II-2. Table II-2 Cell Seeding and Protein Harvesting Procedures
(§3) (2) To the collected supernatant, 5X SDS sample loading buffer was added, followed by denaturation at 95°C for 5 minutes. The denatured samples were then separated by SDS-PAGE electrophoresis on a polyacrylamide gel. Proteins were transferred to a nitrocellulose membrane (0.45 µm NC membrane), blocked with blocking buffer at room temperature for 1 hour, and subjected to antibody incubation and development procedures according to the antibody manufacturer's instructions (Cell Signaling Technology).
(§4) Half-Maximal Degradation Concentration value (the drug concentration required for degrading proteins by 50%, abbreviated as DC50) reads method: comparing the grayscale values of Western blot bands from drug-treated samples with those from blank DMSO-treated controls, and identifying the drug concentration range at which the grayscale value is half that of the DMSO-treated control bands.
(§5) DC50 values can be calculated using ImageJ software to measure grayscale values of Western blot bands from drug-treated samples. The concentration-response curve is fitted to estimate the drug concentration corresponding to half the grayscale value.
(§6) Target protein remaining (%) refers to the percentage of target protein remaining in cells after treatment with protein degrader compounds.
(§7) Calculation method for target protein remaining (%): Use ImageJ software to measure grayscale values of Western blot bands from drug (protein degrader)-treated samples. The grayscale value of drug-treated bands is divided by that of internal control protein bands, and the resulting quotient is normalized to obtain the relative percentage of remaining target protein after protein degrader treatment. Target protein degradation rate(%) = 1−target protein remaining(%). [formula]

[2] = target: T1, CK1α (Homo sapiens, UniProt P48729+Q96SW2); assay: as above; type: cell-based; settings: substrate protein remaining %, treated at 50 nM and 500 nM, 24 hours
T1 construct: endogenous in cells; host or cells: hPBMC
Protocol: as §1, §2, §3, §4, §5, §6, §7

[3] = target: T2, GSPT1 (Homo sapiens, UniProt P15170+Q96SW2); assay: as above; type: cell-based; settings: substrate protein remaining %, treated at 50 nM and 500 nM, 24 hours
T2 construct: endogenous in cells; host or cells: hPBMC
Protocol: as §1, §2, §3, §4, §5, §6, §7

[4] = target: T3, IKZF1 (Homo sapiens, UniProt Q13422+Q96SW2); assay: as above; type: cell-based; settings: substrate protein remaining %, treated at 50 nM and 500 nM, 24 hours
T3 construct: endogenous in cells; host or cells: hPBMC
Protocol: as §1, §2, §3, §4, §5, §6, §7

[5] = target: T4, IKZF2 (Homo sapiens, UniProt Q96SW2+Q9UKS7); assay: as above; type: cell-based; settings: substrate protein remaining %, treated at 50 nM and 500 nM, 24 hours
T4 construct: endogenous in cells; host or cells: hPBMC
Protocol: as §1, §2, §3, §4, §5, §6, §7

[6] = target: T5, IKZF3 (Homo sapiens, UniProt Q96SW2+Q9UKT9); assay: as above; type: cell-based; settings: substrate protein remaining %, treated at 50 nM and 500 nM, 24 hours
T5 construct: endogenous in cells; host or cells: hPBMC
Protocol: as §1, §2, §3, §4, §5, §6, §7

[7] = target: T6, human Cereblon WT GST-tagged protein (Homo sapiens, UniProt Q96SW2); assay: CRBN-binding affinity, HTRF (CEREBLON BINDING kit); settings: for IC50: CRBN binding, HTRF; for inhibition at 0.5 µM: read-out: Inhibition Rate at 0.5 µM (%); for inhibition at 2 µM: read-out: Inhibition Rate at 2 µM (%)
T6 construct: purchased CISBIO 64BDCRBNPEH
Procedure, shortened: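 Competitive HTRF binding: compounds diluted in diluent #9 incubated with GST-tagged wild-type human Cereblon, thalidomide-Red tracer and anti-GST Eu antibody. Final compound concentrations 2 µM and 0.5 µM.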

[8] = test system: MM.1S; assay: Tumor cell proliferation inhibition (CellTiter-Meiluncell Luminescent Cell Viability Assay); type: cell-based; settings: Homo sapiens, MM1.S, MM.1S, 96 hours; for inhibition at 0.01 µM: 10 nM, read-out: Inhibition Rate at 10 nM (%)
Procedure, shortened: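 Following overnight seeding, tumor cells received serial compound dilutions to final levels that included 10 nM and 500 nM. Viability was assessed by luminescence at the end of the specified exposure time. Cultures were kept at 37°C with 5% CO2.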

[9] = target: T7, CDK4 (Homo sapiens, UniProt P11802); assay: Western blot, target protein degradation in MDA-MB-231 Cell; type: cell-based; settings: substrate protein remaining %, treated at 500 nM and 50 nM, 24 hours
T7 construct: endogenous in cells; host or cells: MDA-MB-231
Protocol: as §1, §2, §3, §4, §5, §6, §7

[10] = target: T8, CDK6 (Homo sapiens, UniProt Q00534); assay: as above; type: cell-based; settings: substrate protein remaining %, treated at 500 nM and 50 nM, 24 hours
T8 construct: endogenous in cells; host or cells: MDA-MB-231
Protocol: as §1, §2, §3, §4, §5, §6, §7

T6 sequence (Q96SW2 whole entry): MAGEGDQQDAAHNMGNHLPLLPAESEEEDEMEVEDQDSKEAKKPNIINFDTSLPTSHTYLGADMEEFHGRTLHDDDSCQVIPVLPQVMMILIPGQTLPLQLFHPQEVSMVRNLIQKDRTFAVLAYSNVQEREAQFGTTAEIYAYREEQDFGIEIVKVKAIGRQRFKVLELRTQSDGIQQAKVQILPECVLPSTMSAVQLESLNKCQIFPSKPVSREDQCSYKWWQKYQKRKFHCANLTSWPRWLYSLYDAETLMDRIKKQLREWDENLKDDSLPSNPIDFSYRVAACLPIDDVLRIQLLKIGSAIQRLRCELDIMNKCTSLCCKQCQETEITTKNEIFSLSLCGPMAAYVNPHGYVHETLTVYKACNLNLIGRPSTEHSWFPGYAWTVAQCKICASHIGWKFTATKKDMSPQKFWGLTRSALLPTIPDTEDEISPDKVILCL
T3 sequence (Q13422 whole entry): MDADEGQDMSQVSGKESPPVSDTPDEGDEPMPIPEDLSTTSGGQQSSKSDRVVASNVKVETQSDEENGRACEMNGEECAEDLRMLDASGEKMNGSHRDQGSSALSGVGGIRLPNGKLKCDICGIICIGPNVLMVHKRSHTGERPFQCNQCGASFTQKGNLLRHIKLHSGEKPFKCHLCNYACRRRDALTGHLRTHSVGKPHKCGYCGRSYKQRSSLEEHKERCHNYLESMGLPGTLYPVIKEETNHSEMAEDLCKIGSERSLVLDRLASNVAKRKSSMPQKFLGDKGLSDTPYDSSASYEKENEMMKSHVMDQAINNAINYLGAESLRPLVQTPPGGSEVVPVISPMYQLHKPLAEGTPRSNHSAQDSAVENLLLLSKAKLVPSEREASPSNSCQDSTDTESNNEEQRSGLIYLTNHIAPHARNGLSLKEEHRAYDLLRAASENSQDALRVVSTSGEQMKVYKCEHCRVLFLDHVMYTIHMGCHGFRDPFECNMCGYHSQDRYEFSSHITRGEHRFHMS
T3 sequence (Q96SW2 whole entry): as the sequence (Q96SW2 whole entry) above
T3 sequence (Q16531 whole entry partner): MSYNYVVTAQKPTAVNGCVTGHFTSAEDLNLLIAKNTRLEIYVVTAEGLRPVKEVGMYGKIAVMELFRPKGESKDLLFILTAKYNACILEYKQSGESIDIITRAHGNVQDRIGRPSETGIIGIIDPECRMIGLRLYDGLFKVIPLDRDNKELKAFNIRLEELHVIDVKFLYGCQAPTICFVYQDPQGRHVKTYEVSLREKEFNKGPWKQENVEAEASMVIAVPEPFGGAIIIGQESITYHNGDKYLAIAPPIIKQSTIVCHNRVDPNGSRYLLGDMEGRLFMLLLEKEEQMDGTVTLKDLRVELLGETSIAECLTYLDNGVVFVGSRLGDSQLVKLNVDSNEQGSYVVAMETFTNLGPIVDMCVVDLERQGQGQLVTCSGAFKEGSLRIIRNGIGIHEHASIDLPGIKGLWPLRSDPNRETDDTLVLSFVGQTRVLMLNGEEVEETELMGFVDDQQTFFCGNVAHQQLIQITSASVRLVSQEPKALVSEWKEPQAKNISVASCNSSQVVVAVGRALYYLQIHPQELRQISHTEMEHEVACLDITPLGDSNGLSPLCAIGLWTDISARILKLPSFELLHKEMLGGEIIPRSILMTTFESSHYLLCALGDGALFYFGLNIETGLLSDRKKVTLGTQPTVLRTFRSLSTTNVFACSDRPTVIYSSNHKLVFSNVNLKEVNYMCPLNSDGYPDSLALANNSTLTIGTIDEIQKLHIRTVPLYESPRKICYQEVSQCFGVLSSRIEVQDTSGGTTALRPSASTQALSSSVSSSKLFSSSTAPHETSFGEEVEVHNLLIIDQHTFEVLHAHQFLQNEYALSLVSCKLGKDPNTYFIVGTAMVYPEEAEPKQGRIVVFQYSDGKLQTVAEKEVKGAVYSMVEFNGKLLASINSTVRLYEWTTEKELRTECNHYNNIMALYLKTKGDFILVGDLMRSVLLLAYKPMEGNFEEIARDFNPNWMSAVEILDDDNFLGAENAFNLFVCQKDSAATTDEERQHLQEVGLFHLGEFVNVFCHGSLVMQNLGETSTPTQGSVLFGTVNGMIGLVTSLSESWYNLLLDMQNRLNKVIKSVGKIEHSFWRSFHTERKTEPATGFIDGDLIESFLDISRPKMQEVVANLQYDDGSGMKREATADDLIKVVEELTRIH
T8 sequence (Q00534 whole entry): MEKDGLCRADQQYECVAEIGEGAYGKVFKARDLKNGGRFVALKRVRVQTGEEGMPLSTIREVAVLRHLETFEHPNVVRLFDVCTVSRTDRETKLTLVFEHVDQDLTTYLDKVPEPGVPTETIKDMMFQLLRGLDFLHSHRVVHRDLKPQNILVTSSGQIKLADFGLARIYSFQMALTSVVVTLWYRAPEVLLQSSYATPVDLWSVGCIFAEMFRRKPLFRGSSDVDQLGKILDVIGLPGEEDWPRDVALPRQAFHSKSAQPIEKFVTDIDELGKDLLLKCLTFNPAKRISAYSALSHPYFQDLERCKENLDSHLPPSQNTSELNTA
T2 sequence (P15170 whole entry): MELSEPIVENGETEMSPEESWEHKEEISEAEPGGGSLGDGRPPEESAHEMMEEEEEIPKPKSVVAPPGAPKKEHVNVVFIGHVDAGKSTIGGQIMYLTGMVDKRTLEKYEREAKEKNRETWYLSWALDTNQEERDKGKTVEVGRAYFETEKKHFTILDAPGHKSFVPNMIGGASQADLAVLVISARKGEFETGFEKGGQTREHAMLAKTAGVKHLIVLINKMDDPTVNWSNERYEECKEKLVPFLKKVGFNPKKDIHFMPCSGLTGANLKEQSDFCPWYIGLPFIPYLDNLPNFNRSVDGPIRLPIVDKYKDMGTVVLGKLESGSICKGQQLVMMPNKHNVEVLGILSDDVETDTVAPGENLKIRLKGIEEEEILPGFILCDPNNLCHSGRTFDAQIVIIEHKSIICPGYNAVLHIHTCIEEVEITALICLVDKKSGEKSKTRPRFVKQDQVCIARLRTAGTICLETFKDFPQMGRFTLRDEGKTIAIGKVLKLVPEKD
T2 sequence (Q96SW2 whole entry): as the sequence (Q96SW2 whole entry) above
T2 sequence (Q16531 whole entry partner): as the sequence (Q16531 whole entry partner) above
T4 sequence (Q9UKS7 whole entry): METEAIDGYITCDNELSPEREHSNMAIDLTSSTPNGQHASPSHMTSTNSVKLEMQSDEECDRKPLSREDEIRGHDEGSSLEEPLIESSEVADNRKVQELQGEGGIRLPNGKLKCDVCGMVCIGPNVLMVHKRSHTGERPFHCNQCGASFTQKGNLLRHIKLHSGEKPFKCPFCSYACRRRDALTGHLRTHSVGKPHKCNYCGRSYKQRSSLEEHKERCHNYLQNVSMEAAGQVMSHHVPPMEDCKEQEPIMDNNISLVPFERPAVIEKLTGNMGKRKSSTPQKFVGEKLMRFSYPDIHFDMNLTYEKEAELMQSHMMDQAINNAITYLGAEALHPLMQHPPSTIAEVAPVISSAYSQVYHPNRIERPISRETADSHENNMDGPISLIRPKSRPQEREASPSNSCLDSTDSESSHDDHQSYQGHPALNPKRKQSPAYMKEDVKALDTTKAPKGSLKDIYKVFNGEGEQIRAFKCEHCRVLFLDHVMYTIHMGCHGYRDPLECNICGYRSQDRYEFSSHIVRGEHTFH
T4 sequence (Q96SW2 whole entry): as the sequence (Q96SW2 whole entry) above
T4 sequence (Q16531 whole entry partner): as the sequence (Q16531 whole entry partner) above
T1 sequence (P48729 whole entry): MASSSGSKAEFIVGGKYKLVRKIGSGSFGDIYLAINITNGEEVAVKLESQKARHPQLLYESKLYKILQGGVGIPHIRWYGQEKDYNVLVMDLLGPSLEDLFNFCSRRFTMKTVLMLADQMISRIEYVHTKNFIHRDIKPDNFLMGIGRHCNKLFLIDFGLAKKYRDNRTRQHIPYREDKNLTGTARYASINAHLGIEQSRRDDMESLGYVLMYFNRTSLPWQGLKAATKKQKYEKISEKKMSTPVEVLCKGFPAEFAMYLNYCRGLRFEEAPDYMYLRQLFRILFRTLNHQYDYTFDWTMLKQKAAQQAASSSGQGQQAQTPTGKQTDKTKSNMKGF
T1 sequence (Q96SW2 whole entry): as the sequence (Q96SW2 whole entry) above
T1 sequence (Q16531 whole entry partner): as the sequence (Q16531 whole entry partner) above
T5 sequence (Q9UKT9 whole entry): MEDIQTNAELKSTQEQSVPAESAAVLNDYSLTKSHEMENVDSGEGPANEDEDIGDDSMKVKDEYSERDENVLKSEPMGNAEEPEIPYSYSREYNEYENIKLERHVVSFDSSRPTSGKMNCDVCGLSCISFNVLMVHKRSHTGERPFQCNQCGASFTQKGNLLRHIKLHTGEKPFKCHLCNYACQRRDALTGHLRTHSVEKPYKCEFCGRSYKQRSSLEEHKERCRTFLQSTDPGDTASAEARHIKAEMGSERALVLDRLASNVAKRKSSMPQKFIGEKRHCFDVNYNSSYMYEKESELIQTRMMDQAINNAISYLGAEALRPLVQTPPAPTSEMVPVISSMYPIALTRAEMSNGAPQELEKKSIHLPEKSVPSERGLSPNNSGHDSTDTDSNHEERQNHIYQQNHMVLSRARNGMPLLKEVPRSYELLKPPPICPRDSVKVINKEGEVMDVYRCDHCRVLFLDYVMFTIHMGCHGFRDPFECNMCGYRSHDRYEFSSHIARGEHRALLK
T5 sequence (Q96SW2 whole entry): as the sequence (Q96SW2 whole entry) above
T5 sequence (Q16531 whole entry partner): as the sequence (Q16531 whole entry partner) above

In the case of `O=C1CCC(N2Cc3ccccc3C2=S)C(=O)N1` (stereo not shown) [GT-05563, 3-(1-thioxoisoindolin-2-yl)piperidine-2,6-dione], the “Degradation of substrate protein WEE1” value [1] is reported as “A (0% ≤ substrate protein remaining % ≤ 80%)”, the “Degradation of substrate protein CK1α” value [2] is reported as “B (80%< substrate protein remaining %≤ 100%)” and the “Degradation of substrate protein GSPT1” value [3] is reported as “A (0% ≤ substrate protein remaining % ≤ 80%)”. The “Degradation of substrate protein IKZF1” value [4] was “A (0% ≤ substrate protein remaining % ≤ 80%)”, the “Degradation of substrate protein IKZF2” value [5] was “A (0% ≤ substrate protein remaining % ≤ 80%)” and the “Degradation of substrate protein IKZF3” value [6] was “A (0% ≤ substrate protein remaining % ≤ 80%)”. The IC50 [7] was less than 500 nM.

`O=C1CCC(N2Cc3ccc(CO)cc3C2=S)C(=O)N1` (stereo not shown) [GT-05566, 3-(6-(hydroxymethyl)-1-thioxoisoindolin-2-yl)piperidine-2,6-dione] was tested, and the inhibition at 0.01 µM ([8]; Table I-16, compounds of Formula (II)) was 20 to 30%, the “Degradation of substrate protein WEE1” value [1] was “A (0% ≤ substrate protein remaining % ≤ 80%)” and the “Degradation of substrate protein CK1α” value [2] was “B (80%< substrate protein remaining %≤ 100%)”. The “Degradation of substrate protein GSPT1” value [3] was “A (0% ≤ substrate protein remaining % ≤ 80%)”, the “Degradation of substrate protein IKZF1” value [4] was “A (0% ≤ substrate protein remaining % ≤ 80%)” and the “Degradation of substrate protein IKZF2” value [5] was “A (0% ≤ substrate protein remaining % ≤ 80%)”. The “Degradation of substrate protein IKZF3” value [6] was “A (0% ≤ substrate protein remaining % ≤ 80%)” and the IC50 [7] was less than 500 nM.

`CN(C)C(=O)c1cc2cnc(Nc3ccc(N4CCN(Cc5ccc6c(c5)CN(C5CCC(=O)NC5=O)C6=S)CC4)cn3)nc2n1C1CCCC1` (stereo not shown) [GT-08765, 7-cyclopentyl-2-((5-(4-((2-(2,6-dioxopiperidin-3-yl)-1-thioxoisoindolin-5-yl)methyl)piperazin-1-yl)pyridin-2-yl)amino)-N,N-dimethyl-7H-pyrrolo[2,3-d]pyrimidine-6-carboxamide] was tested, and the inhibition at 0.01 µM ([8]; Table I-9, CDK4/6 inhibitors) was 30 to 40%, the inhibition at 0.5 µM ([8]; 500 nM, Table I-9, CDK4/6 inhibitors, read-out: Inhibition Rate at 500 nM (%)) was 40 to 50% and the “Degradation of substrate protein CDK4” value [9] was “A (0% ≤ substrate protein remaining % ≤ 80%)”. For the same compound, the “Degradation of substrate protein CDK6” value [10] was “A (0% ≤ substrate protein remaining % ≤ 80%)”, the inhibition at 0.5 µM [7] was 40 to 53% and the inhibition at 2 µM [7] was 80 to 100%.

In the case of `CC(=O)c1c(C)c2cnc(Nc3ccc(N4CCN(Cc5ccc6c(c5)CN(C5CCC(=O)NC5=O)C6=S)CC4)cn3)nc2n(C2CCCC2)c1=O` (stereo not shown) [GT-08766, 3-(5-((4-(6-((6-acetyl-8-cyclopentyl-5-methyl-7-oxo-7,8-dihydropyrido[2,3-d]pyrimidin-2-yl)amino)pyridin-3-yl)piperazin-1-yl)methyl)-1-thioxoisoindolin-2-yl)piperidine-2,6-dione], the “Degradation of substrate protein CDK4” value [9] is reported as “A (0% ≤ substrate protein remaining % ≤ 80%)”, the “Degradation of substrate protein CDK6” value [10] is reported as “A (0% ≤ substrate protein remaining % ≤ 80%)” and the inhibition at 0.5 µM [7] is reported as 53 to 60%. The inhibition at 2 µM [7] was 80 to 100%.

Source: patent EP4745138A1, “THIO-GLUTARIMIDO ISOINDOLINONE DERIVATIVE, BIFUNCTIONAL PROTEIN DEGRADER CONTAINING SAME, AND USES THEREOF” (Gluetacs Therapeutics (Shanghai) Co., Ltd., priority 2023, dated 2025)
